Source: ChEMBL document CHEMBL5634070, “Assessment of the structure-activity relationship and antileukemic activity of diacylpyramide compounds as human ClpP agonists” (Eur J Med Chem, 2023)

Assays:
MOLM-13 = assay: Antiproliferative activity against human MOLM-13 cells assessed as inhibition of cell growth at 20 uM by CCK-8 assay relative to control; format: functional
[1] = biological target: T1, ATP-dependent Clp protease proteolytic subunit, mitochondrial (Homo sapiens, UniProt Q16740); assay: Agonist activity at human CLpP by measuring alpha-casein hydrolysis using alpha-casein as substrate preincubated for 10 mins followed by substrate addition and measured after 120 mins by Coomassie brilliant blue staining based SDS-PAGE assay
[2] = biological target: T1, ATP-dependent Clp protease proteolytic subunit, mitochondrial; assay: Binding affinity to human CLpP assessed as change in melting temperature by DSF assay; conditions: filed as agonist
[3] = biological target: T1, ATP-dependent Clp protease proteolytic subunit, mitochondrial; assay: Agonist activity at human CLpP by measuring alpha-casein hydrolysis using alpha-casein as substrate by FITC staining based assay
NB-4 = assay: Inhibition of colony formation in human NB4 cells incubated for 14 days; format: functional, cell-based; conditions: time 14.0 day

T1 sequence (Q16740 whole entry): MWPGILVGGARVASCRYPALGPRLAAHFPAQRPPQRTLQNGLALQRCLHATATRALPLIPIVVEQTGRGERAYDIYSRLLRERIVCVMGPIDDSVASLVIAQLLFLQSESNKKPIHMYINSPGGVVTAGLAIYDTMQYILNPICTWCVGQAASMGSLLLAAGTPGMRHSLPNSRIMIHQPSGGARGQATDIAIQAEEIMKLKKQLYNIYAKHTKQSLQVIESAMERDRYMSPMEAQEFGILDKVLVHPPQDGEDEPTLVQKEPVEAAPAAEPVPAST

Row | SMILES | inhibition at 20 µM (MOLM-13) [%] | EC50 [1] [µM] | ΔTm [2] [°C] | EC50 [3] [µM] | inhibition (NB-4)
1 | CC[C@H](C)[C@H]1C(=O)N(Cc2cccc3ccccc23)C[C@@H]2N(C(=O)NCc3ccc(C(C)C)cc3)CCC(=O)N12 | 97.7 | > 25 |  |  | 
2 | CC[C@H](C)[C@H]1C(=O)N(Cc2cccc3ccccc23)C[C@@H]2N(C(=O)NCc3ccc(C)cc3)CCC(=O)N12 | 99.4 | 3.3 |  |  | 
3 | CC[C@H](C)[C@H]1C(=O)N(Cc2cccc3ccccc23)C[C@@H]2N(C(=O)NCc3c(F)c(F)c(F)c(F)c3F)CCC(=O)N12 | 99.9 | 15.9 |  |  | 
4 | CC[C@H](C)[C@H]1C(=O)N(Cc2cccc3ccccc23)C[C@@H]2N(C(=O)NCc3ccc(OC)cc3)CCC(=O)N12 | 99.4 | 3.4 |  |  | 
5 | CC[C@H](C)[C@H]1C(=O)N(Cc2ccc(F)c3ccccc23)C[C@@H]2N(C(=O)NCc3ccc(Br)cc3)CCC(=O)N12 | 97.7 | 3.8 |  |  | 
6 | CC[C@H](C)[C@H]1C(=O)N(Cc2cccc3ccccc23)C[C@@H]2N(C(=O)NCc3ccc(Br)cc3)CCC(=O)N12 | 99.7 | 2.8 | 16.4 | 1.19 | Dose-Dependent Effect
7 | CC[C@H](C)[C@H]1C(=O)N(Cc2cccc3ccccc23)C[C@@H]2N(C(=O)NCc3ccccc3)CCC(=O)N12 | 97.9 | 7.8 |  |  | 
8 | CC[C@H](C)[C@H]1C(=O)N(Cc2cccc3ccccc23)C[C@@H]2N(C(=O)NCc3cc(F)c(Br)c(F)c3)CCC(=O)N12 | 99.1 | 3.6 |  |  | 
9 | CC[C@H](C)[C@H]1C(=O)N(Cc2cccc3ccccc23)C[C@@H]2N(C(=O)NCc3ccc(Cl)cc3)CCC(=O)N12 | 98.3 | 2.7 |  |  | 
10 | CC[C@H](C)[C@H]1C(=O)N(Cc2cccc3ccccc23)C[C@@H]2N(C(=O)NCc3ccc(F)c(Cl)c3)CCC(=O)N12 | 97.9 | 3.4 |  |  | 
11 | CC[C@H](C)[C@H]1C(=O)N(Cc2cccc3ccccc23)C[C@@H]2N(C(=O)NCc3c(F)cc(Br)cc3F)CCC(=O)N12 | 99.1 | > 25 |  |  | 
12 | CC[C@H](C)[C@H]1C(=O)N(Cc2cccc3ccccc23)C[C@@H]2N(C(=O)NCc3ccc4ccccc4c3)CCC(=O)N12 | 99.3 | 10.6 |  |  | 
13 | O=C1[C@H](Cc2ccc(O)cc2)N2C(=O)CCN(C(=O)NCc3ccccc3)[C@H]2CN1Cc1cccc2ccccc12 | 86.9 | 7.1 |  |  | 
14 | CC[C@H](C)[C@H]1C(=O)N(Cc2cccc3ccccc23)C[C@@H]2N(C(=O)NCc3ccc4c(c3)OCO4)CCC(=O)N12 | 78.6 | 5.8 |  |  | 
15 | CC[C@H](C)[C@H]1C(=O)N(Cc2cccc3ccccc23)C[C@@H]2N(C(=O)NCc3ccc(F)c(OC)c3)CCC(=O)N12 | 98.1 | 5.4 |  |  | 
16 | CC[C@H](C)[C@H]1C(=O)N(Cc2cccc3ccccc23)C[C@@H]2N(C(=O)NCC3CCCCC3)CCC(=O)N12 | 99.5 | 11.2 |  |  | 
17 | NC(=O)C[C@H]1C(=O)N(Cc2cccc3ccccc23)C[C@@H]2N(C(=O)NCc3ccccc3)CCC(=O)N21 | 5.5 | > 25 |  |  | 
18 | CC[C@H](C)[C@H]1C(=O)N(Cc2cccc3c2OCO3)C[C@@H]2N(C(=O)NCc3ccc(Br)cc3)CCC(=O)N12 | 44.4 | 14.9 |  |  | 
19 | O=C1[C@H](Cc2cnc[nH]2)N2C(=O)CCN(C(=O)NCc3ccccc3)[C@H]2CN1Cc1cccc2ccccc12 | 13.4 | 22.8 |  |  | 

Row | SMILES | inhibition at 20 µM (MOLM-13) [%] | EC50 [1] [µM] | ΔTm [2] [°C] | EC50 [3] [µM] | inhibition (NB-4)
20 | CC[C@H](C)[C@H]1C(=O)N(Cc2cccc3ccccc23)C[C@@H]2N(C(=O)NCc3cc(F)c(F)c(F)c3)CCC(=O)N12 | 99.5 | 10.9 |  |  | 
21 | O=C1[C@H](Cc2ccccc2)N2C(=O)CCN(C(=O)NCc3ccccc3)[C@H]2CN1Cc1cccc2ccccc12 | 34 | 14.4 |  |  | 
22 | CC[C@H](C)[C@H]1C(=O)N(Cc2cccc3ccccc23)C[C@@H]2N(C(=O)NCc3ccc(F)c(F)c3)CCC(=O)N12 | 99.6 | 3.7 |  |  | 
23 | CC[C@H](C)[C@H]1C(=O)N(Cc2cccc3ccccc23)C[C@@H]2N(C(=O)NCc3ccc(F)c(Br)c3)CCC(=O)N12 | 97.6 | 3.6 |  |  | 
24 | CC[C@H](C)[C@H]1C(=O)N(Cc2cccc3ccccc23)C[C@@H]2N(C(=O)NCC3CCOCC3)CCC(=O)N12 | 6.3 | > 25 |  |  | 
25 | CC[C@H](C)[C@H]1C(=O)N(Cc2cccc3ccccc23)C[C@@H]2N(C(=O)CCc3ccc(F)cc3)CCC(=O)N12 | 58.2 | 10.4 |  |  | 
26 | CC(C)C[C@H]1C(=O)N(Cc2cccc3ccccc23)C[C@@H]2N(C(=O)NCc3ccccc3)CCC(=O)N21 | 82.5 | 7.2 |  |  | 
27 | CC[C@H](C)[C@H]1C(=O)N(Cc2cccc3ccccc23)C[C@@H]2N(C(=O)NC(C)(C)c3ccccc3)CCC(=O)N12 | 46.3 | 4.3 |  |  | 
28 | CC[C@H](C)[C@H]1C(=O)N(Cc2cccc3ccccc23)C[C@@H]2N(C(=O)NCc3ccc(Br)cc3F)CCC(=O)N12 | 98 | 5.6 |  |  | 
29 | CC[C@H](C)[C@H]1C(=O)N(Cc2cccc3ccccc23)C[C@@H]2N(C(=O)NCc3cc(Br)cc(Br)c3)CCC(=O)N12 | 98.4 | > 25 |  |  | 
30 | CC[C@H](C)[C@H]1C(=O)N(Cc2cccc3ccccc23)C[C@@H]2N(C(=O)NCc3ccc(OC)c(OC)c3)CCC(=O)N12 | 35.2 | > 25 |  |  | 
31 | CC[C@H](C)[C@H]1C(=O)N(Cc2cccc3ccccc23)C[C@@H]2N(C(=O)NCc3ccc(I)cc3)CCC(=O)N12 | 97.5 | 5.2 |  |  | 
32 | CCCCNC(=O)N1CCC(=O)N2[C@@H]([C@@H](C)CC)C(=O)N(Cc3cccc4ccccc34)C[C@H]12 | 23.6 | 4.6 |  |  | 
33 | CC[C@H](C)[C@H]1C(=O)N(Cc2cccc3ccccc23)C[C@@H]2N(C(=O)CCc3ccccc3)CCC(=O)N12 | 92 | 14.1 |  |  | 
34 | CC[C@H](C)[C@H]1C(=O)N(Cc2ccc3ccccc3c2)C[C@@H]2N(C(=O)NCc3ccc(Br)cc3)CCC(=O)N12 | 13.2 | > 25 |  |  | 
35 | CSCC[C@H]1C(=O)N(Cc2cccc3ccccc23)C[C@@H]2N(C(=O)NCc3ccccc3)CCC(=O)N21 | 24.4 | 15.9 |  |  | 
36 | CC[C@H](C)[C@H]1C(=O)N(Cc2cccc3ccccc23)C[C@@H]2N(C(=O)NCc3ccc(C(F)(F)F)cc3)CCC(=O)N12 | 95.3 | 7.7 |  |  | 
37 | CC[C@H](C)[C@H]1C(=O)N(Cc2cccc3ccccc23)C[C@@H]2N(C(=O)NCc3ccc(F)cc3Cl)CCC(=O)N12 | 99.8 | 8.7 |  |  | 
